# According to paper PMC10828444, “Selective inhibition of overactive warmth-sensitive Ca^2+-permeable TRPV3 channels by antispasmodic agent flopropione for alleviation of skin inflammation” (The Journal of Biological Chemistry, 2023):
# What was measured:
# TRPV3-F666A mutant = biological target: T1, TRPV3-F666A mutant (Homo sapiens, UniProt Q8NET8, F666A); assay: Whole-cell and single-channel recordings of TRPV3-F666A mutant; type: cell-based; conditions: 100 μM flopropione whole-cell (50 μM 2-APB); 50 μM single-channel (30 μM 2-APB)
# T1 construct: expressed in transfected cells; host or cells: HEK293
# T1 sequence (Q8NET8 1-790 F666A): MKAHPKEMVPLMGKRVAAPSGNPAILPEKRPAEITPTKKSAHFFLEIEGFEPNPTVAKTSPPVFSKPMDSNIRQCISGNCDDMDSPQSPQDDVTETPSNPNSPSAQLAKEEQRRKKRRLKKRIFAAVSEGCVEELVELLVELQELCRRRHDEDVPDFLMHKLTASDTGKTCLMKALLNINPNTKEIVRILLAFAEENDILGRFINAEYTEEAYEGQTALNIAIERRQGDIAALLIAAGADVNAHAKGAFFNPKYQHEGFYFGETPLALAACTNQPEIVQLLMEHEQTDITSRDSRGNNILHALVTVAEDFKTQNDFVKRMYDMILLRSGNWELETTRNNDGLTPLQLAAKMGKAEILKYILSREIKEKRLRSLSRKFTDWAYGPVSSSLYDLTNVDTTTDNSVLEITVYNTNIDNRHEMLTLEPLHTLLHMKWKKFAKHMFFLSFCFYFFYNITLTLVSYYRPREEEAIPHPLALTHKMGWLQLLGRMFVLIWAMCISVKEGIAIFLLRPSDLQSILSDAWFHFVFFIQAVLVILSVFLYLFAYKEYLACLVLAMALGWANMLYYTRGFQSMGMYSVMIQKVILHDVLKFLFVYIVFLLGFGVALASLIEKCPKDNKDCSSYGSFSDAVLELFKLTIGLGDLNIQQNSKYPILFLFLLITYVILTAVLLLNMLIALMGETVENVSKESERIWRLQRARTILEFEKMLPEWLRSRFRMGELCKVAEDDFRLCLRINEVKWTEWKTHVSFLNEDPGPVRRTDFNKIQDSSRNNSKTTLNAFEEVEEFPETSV
# Method: HEK293 cells were cultured in Dulbecco’s modified Eagle’s medium (DMEM, Gibco) containing 4.5 g/L D-glucose supplemented with 10% fetal bovine serum based at 37 °C with 5% CO2. For whole-cell patch-clamp recordings, cells were grown in glass coverslips for 24 h before transient transfections with 3000 ng cDNAs of hTRPV3 (gene accession number BC104866.1), hTRPV1 (accession number NM_080704.3), mTRPV2 (accession number NM_011706.2), hTRPV4 (accession number NM_021625.5), hTRPA1 (accession number NM_007332.3) and hTRPM8 (accession number NM_024080.5) into HEK293 cells grown in a 35-mm cell culture dish using Lipofectamine 2000 (Invitrogen). Cells were used 18 ∼ 24 h after transfection. All WT or mutant hTRPV3 plasmids were validated by DNA sequencing.
# Whole-cell patch clamp recordings of wild-type and mutants were carried out at room temperature using the HEKA EPC10 amplifier powered by PatchMaster software (HEKA) or MultiClamp 700B amplifier driven by Clampex 11.0.3 software. The borosilicate glass pipettes were pulled and fire-polished to 3∼6 MΩ using a DMZ universal electrode puller (Zeitz-Instruments, GmbH). Pipette solution and bath solution both contained (in mM): 130 NaCl, three HEPES, and 0.2 EDTA (pH = 7.4). Cell membrane potential was held at 0 mV, currents were recorded at a voltage ramp from −100 to +100 mV for 500-ms and analyzed at ±80 mV. […]
# [1] = tested on: DNFB-induced dorsal skin inflammation; assay: Mouse model of dorsal skin inflammation (atopic dermatitis) induced by DNFB; type: in vivo, C57BL/6J mice
# Method: Mice were placed in a gas anesthesia device (SurgiVet) for anesthesia before the hair on the back was removed with a razor, followed by the application of an appropriate amount of hair removal cream to gently shave off the remaining hair. For generation of atopic dermatitis and ear swelling, chemical skin sensitizer DNFB (1-Fluoro-2,4-dinitrobenzene), commonly known as Sanger’s Reagent, was dissolved in a solvent (acetone/olive oil = 4/1, v/v) and 0.5% DNFB in 100 μl was applied once topically to the back and right ear for skin sensitization 1 day after acclimatization for hair removal ([43]) without any treatment for next 3 days. On the fifth and sixth days, 0.2% DNFB in 50 μl was applied topically once a day for 2 days for challenge before different concentrations of flopropione in 100 μl were topically applied once a day for four consecutive days. First application of topical flopropione started half an hour after the last application of 0.2% DNFB challenge. For the effect of flopropione on skin inflammation, topical flopropione (0.1 mM, 1 mM or 10 mM) in 100 μl was applied into ear and shaved area of dorsal skin by swabbing once a day for four consecutive days.
# The score contents and criteria include (1): skin erythematous/bleeding (2), skin scratches/erosion (3), skin edema (4), skin scaling or lichenoid change ([44]). Each symptom was scored from 0 to 3 (none, 0; mild, one; moderate, two; severe, (3). The final score was defined as the sum of individual scores on a scale from 0 to 12. Mouse ear thickness was measured once a day for continuous 5 days with the first measurement of ear thickness 30 min after the last application of 0.2% DNFB using vernier caliper.
# Mice were anesthetized with 1.0% isoflurane before sacrifice 24 h after the last treatment ([31], [32], [43]). Mouse dorsal skin was removed with scissors and forceps before fixed with 4% paraformaldehyde. Paraffin-embedded tissues were sectioned and stained with hematoxylin and eosin. Stained sections were observed using bright-field microscopy (ECLIPSE Ti-S, Nikon) and CCD-camera (DS-Ri2, Nikon).
compound,measurement,setting,value
CCC(=O)c1c(O)cc(O)cc1O [flopropione],effect of F666A mutation on flopropione-mediated inhibition,TRPV3-F666A mutant,no effect
same,dorsal skin inflammation (phenotype),"[1]; topical 0.1–10 mM, once a day for 4 days, vs DNFB alone",alleviated the skin inflammation in concentration-dependent manner
same,dermatitis scores,"[1]; topical 0.1–10 mM, vs DNFB alone group, n = 5",significantly reduced the dermatitis scores
same,"skin hyperkeratosis and lesion (histology, dorsal skin thickness)","[1]; topical 0.1 ∼ 10 mM, H&E sections, vs DNFB alone",reduced mouse skin hyperkeratosis and lesion
